Read-outs that look alike come from different tables or passages of the source.
Assays:
GM16513 cells [1] = assay: Catalase import immunofluorescence, high-content screening (% importing cells); assay type: cell-based, human; settings: GM16513 cells, 3 days; for EC50 / Emax: Homo sapiens, 72 h, dose response with 6 concentrations; for EC50: read-out: EC50; for Emax: read-out: Max Efficacy (% Importing cells)
GM16513 cells [2] = assay type: cell-based; settings: 3 days, PI positive cells (dead cells)
PEX405 cells [3] = assay: Catalase import immunofluorescence, high-content screening (% importing cells); assay type: cell-based, human; settings: PEX405 cells, 3 days
PEX405 cells [4] = assay type: cell-based; settings: 3 days, PI positive cells (dead cells)

Compound	% PI+ cells (GM16513 cells [2]; 1.3 µM)	% PI+ cells (GM16513 cells [2]; 10 µM)	% PI+ cells (PEX405 cells [4]; 1.3 µM)	% PI+ cells (PEX405 cells [4]; 10 µM)	EC50 (GM16513 cells [1])	% Importing cells (GM16513 cells [1]; 1.3 µM)	% Importing cells (GM16513 cells [1]; 10 µM)	% Importing cells (PEX405 cells [3]; 1.3 µM)	% Importing cells (PEX405 cells [3]; 10 µM)	Emax (GM16513 cells [1])
O=C(CCCCCN1C(=O)c2cccc3cccc(c23)C1=O)NO [Scriptaid]	2%	8%	1%	6%	–	57%	92%	15%	16%	–
HDACs/mTOR Inhibitor 1	14%	24%	8%	40%	–	77%	96%	9%	33%	–
O=C1CCc2c(ccc3ccccc23)O1 [Splitomicin]	1%	1%	0%	1%	–	33%	25%	5%	5%	–
CCCCOc1ccc(CC(=O)NO)cc1 [Bufexamac]	2%	1%	1%	0%	–	26%	25%	4%	50%	–
CCCCc1nc2cc(/C=C/C(=O)NO)ccc2n1CCN(CC)CC [Pracinostat]	4%	31%	2%	41%	170 nM	92%	86%	52%	25%	93%
CN1CCc2c(c3ccccc3n2Cc2ccc(C(=O)NO)cc2)C1.Cl [Tubastatin A (Hydrochloride), Tubastatin A]	2%	1%	1%	1%	–	12%	37%	3%	6%	–
COc1ccc(-c2nc(N3CCOCC3)c3sc(CN(C)c4ncc(C(=O)NO)cn4)cc3n2)cn1 [Fimepinostat]	25%	29%	43%	55%	10 nM	81%	61%	25%	4%	92.5%
Nc1ccccc1NC(=O)c1ccc(CNC(=O)OCc2cccnc2)cc1 [Entinostat]	2%	7%	2%	6%	470 nM	45%	58%	15%	12%	54%

Second part, led by results:

% PI+ cells (GM16513 cells [2]; 1.3 µM)	% PI+ cells (GM16513 cells [2]; 10 µM)	% PI+ cells (PEX405 cells [4]; 1.3 µM)	% PI+ cells (PEX405 cells [4]; 10 µM)	EC50 (GM16513 cells [1])	Compound	% Importing cells (GM16513 cells [1]; 1.3 µM)	% Importing cells (GM16513 cells [1]; 10 µM)	% Importing cells (PEX405 cells [3]; 1.3 µM)	% Importing cells (PEX405 cells [3]; 10 µM)	Emax (GM16513 cells [1])
2%	5%	1%	1%	–	CC(C)(C)c1ccc(C(=O)Nc2ccc(C(=O)NO)cc2)cc1 [AES-350]	22%	45%	5%	10%	–
1%	5%	0%	2%	–	O=C(NO)c1ccc(CN2CCCc3cc(Cl)ccc32)cc1 [SW-100]	21%	6%	4%	0%	–
2%	2%	1%	1%	–	CC(=O)Nc1ccc(C(=O)Nc2ccc(F)cc2N)cc1 [BRD3308]	12%	16%	4%	5%	–
1%	2%	0%	1%	–	CCCCNNC(=O)c1ccc(-c2cccc(F)c2F)cc1 [SR-4370]	26%	30%	5%	7%	–
2%	23%	1%	44%	700 nM	C#Cc1cccc(Nc2ncnc3cc(OC)c(OCCCCCCC(=O)NO)cc23)c1 [CUDC-101]	60%	90%	23%	49%	100%
1%	1%	1%	1%	–	CC(C)(CNC(=O)c1cccc(-c2noc(C(F)(F)F)n2)c1)c1coc(-c2ccccc2)n1 [TMP195]	13%	8%	2%	1%	–

From patent EP4410284A1, “COMPOUND AND METHOD FOR THE TREATMENT OF ZELLWEGER SPECTRUM DISORDER” (Apteeus, priority 2023, dated 2024)
